Experimental findings from the OligoGym collection are described below.

Targets include CHUK; PRKACA; WWP1; PTPN11.
Common to all, as to conditions: ASO

These antisense oligonucleotides have a phosphorothioate backbone; sugars and methylation of C are not fully specified. Bounds are passed on as bounds.
Note: test concentration or dose not given here.

With CTTCTGCTTACAGCCCAA, the remaining target (mRNA or protein) (fraction of control) with CHUK is 0.56.
In turn, CTTCTGTTTGTCGAGGATCT registered a remaining target (mRNA or protein) (fraction of control) in the data set with PRKACA of 0.49.
CTTTGTTCCCACCCTGATGG came in with a remaining target (mRNA or protein) (fraction of control) with WWP1 of 0.98.
Regarding GAACATCTCCCCGCCGGGCA, the remaining target (mRNA or protein) (fraction of control) with PRKACA was 0.87.
In the data set with WWP1, GAATTAGAGGTGTCAGGCTC registered a remaining target (mRNA or protein) (fraction of control) of at least 1.
Take GACATAATCTGATCCTCC: the remaining target (mRNA or protein) (fraction of control) with CHUK is at least 1.
In the data set with WWP1, GAGACGGAGATGAAGGTGTG had a remaining target (mRNA or protein) (fraction of control) of at least 1.
The sequence GATCCACATAATAGGTTCTA showed a remaining target (mRNA or protein) (fraction of control) in the data set with WWP1 of at least 1.
Turning to GCAGGCTCAGATGCGAGTGG, the remaining target (mRNA or protein) (fraction of control) with WWP1 was at least 1.
Turning to GCATAGCTCCCTGCAATTGG, in the data set with WWP1, the remaining target (mRNA or protein) (fraction of control) is at least 1.
In the data set with PRKACA, GCGGCCCTTCACGCGCTTGG showed a remaining target (mRNA or protein) (fraction of control) of at least 1.
Regarding GCGGCGGCGTTGCCCATCGC, in the data set with PRKACA, the remaining target (mRNA or protein) (fraction of control) was found to be 0.33.
In turn, GCGGCGGGTGCTGGCTGCGG showed a remaining target (mRNA or protein) (fraction of control) in the data set with PRKACA of 0.85.
For GCGTTGCCCATCGCGGCGGC, in the data set with PRKACA, the remaining target (mRNA or protein) (fraction of control) came out at 0.36.
In the data set with CHUK, GCTGTCACTGTAGGAGTG showed a remaining target (mRNA or protein) (fraction of control) of 0.75.
As to GCTTCTCTTTAAAATGGATT, in the data set with PRKACA, the remaining target (mRNA or protein) (fraction of control) amounted to 0.84.
On the same count and under the same terms, under GCTTGCAGGATGCGCTTTTC stands 0.34; under GGAGCAGCTGGTGTTTCTGT, 0.61; under GGCATGCCCCTAAAACTCAG, 0.55.
On the same count and under the same terms, under GGCGGCGGCGGCGTTGCCCA stands 0.51; under GGCGGCGTTGCCCATCGCGG, 0.31.
In the data set with CHUK, GGTAACAGAAAAGAAATT registered a remaining target (mRNA or protein) (fraction of control) of at least 1.
In turn, GTTGCCCATCGCGGCGGCGG had a remaining target (mRNA or protein) (fraction of control) in the data set with PRKACA of 0.53.
GTTGGTGCAAATGAGGATGA registered a remaining target (mRNA or protein) (fraction of control) in the data set with WWP1 of 0.95.
In the data set with PRKACA, GTTGTCCTTGAAGGAGAACT gave a remaining target (mRNA or protein) (fraction of control) of at least 1.
Consider GTTGTTGTTCTGGTGTTATG, for which the remaining target (mRNA or protein) (fraction of control) with WWP1 amounted to 0.95.
Sequence TAAGCGCCTCCTCAAGTCAT gave a remaining target (mRNA or protein) (fraction of control) in the data set with WWP1 of 0.86.
In the data set with CHUK, TAATCTGGATTTCATGGC returned a remaining target (mRNA or protein) (fraction of control) of at least 1.
Still for that read-out and setting: for TAGAAGAGGCACATCATG the value was 0.76.
On to TAGATGAGATCCAGCGAGTG, for which the remaining target (mRNA or protein) (fraction of control) with PRKACA is 0.72.
The same measure, in the same setting: for TAGTTTTCAAATATGTTTAC the value was at least 1.
Take TATGAAAGATGGTCTGGATT: the remaining target (mRNA or protein) (fraction of control) with WWP1 came out at 0.99.
On to TATGATCAACAAAGTACCTT, for which, in the data set with WWP1, the remaining target (mRNA or protein) (fraction of control) is at least 1.
TATTTTATGTATTATCTT showed a remaining target (mRNA or protein) (fraction of control) with CHUK of at least 1.
On the same count and under the same terms, under TCAATACGAGACTGTAGT stands at least 1.
TCAGACACTACTGGAGTACC: the remaining target (mRNA or protein) (fraction of control) with WWP1 turned out to be 0.76.
Still for that read-out and setting: under TCCCAGACTGCTGCCGTACA stands 0.47; under TCCCATTGCGAGGATCTTTG, at least 1.
Turning to TCCTTCAAGTCAGAGCTGAA, the remaining target (mRNA or protein) (fraction of control) with PRKACA amounted to 0.56.
Sequence TCGCGGCGGCGGCGGCCGGG registered a remaining target (mRNA or protein) (fraction of control) in the data set with PRKACA of 0.81.
In turn, TCTGCGAAGAAGGGCGGGTA yielded a remaining target (mRNA or protein) (fraction of control) with PRKACA of at least 1.
Consider TGCAGGGATGCCCTCCCCAC, for which, in the data set with PRKACA, the remaining target (mRNA or protein) (fraction of control) was 0.35.
Sequence TGCCCATCGCGGCGGCGGCG returned a remaining target (mRNA or protein) (fraction of control) in the data set with PRKACA of 0.71.
In turn, TGGCTCCCCAGCGGCTCCCC yielded a remaining target (mRNA or protein) (fraction of control) with PRKACA of 0.64.
The sequence TGGCTGCGGCCGGCGGCCCG displayed a remaining target (mRNA or protein) (fraction of control) in the data set with PRKACA of 0.51.
In turn, TGTCTTGATTTGGCTGCTTC showed a remaining target (mRNA or protein) (fraction of control) with WWP1 of 0.91.
For TGTTCCTCCCGCCCTCCGGC, in the data set with PTPN11, the remaining target (mRNA or protein) (fraction of control) was at least 1.
With TGTTGTTATCTCTTATCCAG, in the data set with WWP1, the remaining target (mRNA or protein) (fraction of control) came out at 0.92.
In the data set with WWP1, TTCAAAATTTCGGACAGATT gave a remaining target (mRNA or protein) (fraction of control) of at least 1.
TTCCATGTAATACTGGACCA yielded a remaining target (mRNA or protein) (fraction of control) in the data set with PTPN11 of 0.29.
Still for that read-out and setting: for TTCTTCCCAAAAGCCTTGTT the value was 0.67; for TTGATGTGGGTGACAGCTCC, 0.42.
In the data set with PTPN11, TTGCATTGATGTAATCTGAA yielded a remaining target (mRNA or protein) (fraction of control) of 0.98.
For the sequence TTGGCGCTTCGTTCATTTGC, the remaining target (mRNA or protein) (fraction of control) in the data set with PRKACA amounted to 0.61.
In turn, TTTAAATGGTTTCAAATTTT showed a remaining target (mRNA or protein) (fraction of control) with PTPN11 of at least 1.
In turn, TTTAGACTTGCCGTCATTGC returned a remaining target (mRNA or protein) (fraction of control) with PTPN11 of 0.32.
For the sequence TTTCTGAGGAAGTCAGTATT, the remaining target (mRNA or protein) (fraction of control) with WWP1 was at least 1.
Same read-out and setting: for TTTGTGTTATGATTCACAAA the value was 0.95.
